Usually IC50 stands for the concentration needed to halve the response being measured.

Here are results for two compounds from patent US11673897B2, “Compounds for the treatment of kinase-dependent disorders” (Exelixis, Inc., priority 2018, dated 2023).

SMILES strings stand for the structures. Where only a bound is given, the exact number is not on record here.

The target in assay [1] is Mer (Homo sapiens (Human), UniProt Q12866). The assay is described as follows: Human Mer kinase assay (33P radiometric, KinaseProfiler). The note with it: 10 μM ATP. Type of assay: biochemical. As for the experimental part: (§1) Kinase activity and compound inhibition were investigated using the ^33P-Phosphoryl transfer radiometric kinase assay, performed using the KinaseProfiler™ service of Eurofins Pharma Discovery Services UK Limited. Dose-response experiments were performed using nine compound concentrations in a 96-well microtiter plate. For each assay, all compounds were prepared to a 50× final assay concentration (50 μM) in 100% DMSO, then diluted in a half-log series, with the final top concentration at 1 μM. This working stock of the compound was added to the assay well as the first component in the reaction, followed by the remaining components as detailed in the following assay protocols below. The positive control wells (100% kinase activity) contain all components of the reaction including 2% DMSO (control for solvent effects), except the compound of interest. Blank wells contain all components of the reaction, with the reference inhibitor, staurosporine. This reference compound was used to abolish kinase activity and generated the 0% kinase activity base-line. IC50 values were calculated by nonlinear regression analysis using the sigmoidal dose-response (variable slope) curve fit on XLFit version 5.3 (ID Business Solutions).
Chain of Mer (Q12866 557-882): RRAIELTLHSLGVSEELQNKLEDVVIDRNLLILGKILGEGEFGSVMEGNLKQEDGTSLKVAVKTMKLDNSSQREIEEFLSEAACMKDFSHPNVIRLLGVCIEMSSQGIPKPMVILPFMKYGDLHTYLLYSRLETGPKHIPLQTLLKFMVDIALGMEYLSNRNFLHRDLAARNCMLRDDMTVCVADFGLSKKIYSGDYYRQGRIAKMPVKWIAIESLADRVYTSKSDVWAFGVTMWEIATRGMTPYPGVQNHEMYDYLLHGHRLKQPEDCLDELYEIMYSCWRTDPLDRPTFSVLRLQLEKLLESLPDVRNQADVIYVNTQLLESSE
Human Mer (residues R557-E882 with H628Q and R794A, 0.7 nM) was incubated with 8 mM MOPS pH 7.0, 0.2 mM EDTA, 30 mM NaCl, 250 μM GGMEDIYFEFMGGKKK (SEQ ID NO. 44), 10 mM magnesium acetate, and 10 μM [γ-^33P-ATP]. The reaction was initiated by the addition of the Mg/ATP mix. After incubation for 40 minutes at room temperature, the reaction was stopped by the addition of phosphoric acid to a concentration of 0.5%. A reaction aliquot of 10 μL was then spotted onto a P30 filtermat and washed four times for 4 minutes in 0.425% phosphoric acid and once in methanol prior to drying and scintillation counting. Incorporated ^33P was measured using the Wallac Microbeta scintillation counter (Perkin Elmer).

In assay [2] the target is Human Axl (Homo sapiens (Human), UniProt P30530, Q764R). The assay is described as follows: Human AXL kinase assay (33P radiometric, KinaseProfiler). The note with it: 10 μM ATP. Type of assay: biochemical. On the procedure: as §1
Chain of Human Axl (P30530 473-894 Q764R): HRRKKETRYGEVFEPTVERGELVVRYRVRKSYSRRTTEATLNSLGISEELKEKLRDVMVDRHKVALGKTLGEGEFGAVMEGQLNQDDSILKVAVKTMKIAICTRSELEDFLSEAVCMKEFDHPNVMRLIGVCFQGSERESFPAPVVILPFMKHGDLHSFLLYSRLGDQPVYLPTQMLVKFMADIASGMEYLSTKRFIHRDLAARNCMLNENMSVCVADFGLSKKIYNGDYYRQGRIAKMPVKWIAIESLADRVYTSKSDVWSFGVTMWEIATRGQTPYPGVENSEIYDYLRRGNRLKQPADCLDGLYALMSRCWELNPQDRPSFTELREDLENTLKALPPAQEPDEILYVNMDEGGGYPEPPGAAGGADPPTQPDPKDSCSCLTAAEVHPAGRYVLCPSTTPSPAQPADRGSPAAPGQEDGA
Human Axl (residues H473-A894 with Q764R, 161 nM) was incubated with 8 mM MOPS pH 7.0, 0.2 mM EDTA, 250 μM KKSRGDYMTMQIG (SEQ ID NO. 43), 10 mM magnesium acetate and 10 μM [γ-33P-ATP]. The reaction was initiated by the addition of the Mg/ATP mix. After incubation for 40 minutes at room temperature, the reaction was stopped by the addition of phosphoric acid to a concentration of 0.5%. A reaction aliquot of 10 μL was then spotted onto a P30 filtermat and washed four times for 4 minutes in 0.425% phosphoric acid and once in methanol prior to drying and scintillation counting. Incorporated ^33P was measured using the Wallac Microbeta scintillation counter (Perkin Elmer).

Assay [3] concerns the target Met (Homo sapiens (Human), UniProt P08581). The assay is described as follows: Human Met kinase assay (33P radiometric, KinaseProfiler). Type of assay: biochemical. The settings on record: 10 μM ATP, read-out: c-Met IC50. As for the experimental part:
as §1
Human Met (residues R974-S1390 with A1209G and V1290L, 3.4 nM) was incubated with 8 mM MOPS pH 7.0, 0.2 mM EDTA, 250 μM KKKGQEEEYVFIE (SEQ ID NO. 45), 1 mM sodium orthovanadate, 5 mM […], 10 mM magnesium acetate, and 10 μM [γ-33P-ATP]. The reaction was initiated by the addition of the Mg/ATP mix. After incubation for 40 minutes at room temperature, the reaction was stopped by the addition of phosphoric acid to a concentration of 0.5%. A reaction aliquot of 10 μL was then spotted onto a P30 filtermat and washed four times for 4 minutes in 0.425% phosphoric acid and once in methanol prior to drying and scintillation counting. Incorporated 33P was measured using the Wallac Microbeta scintillation counter (Perkin Elmer).

Assay [4] deals with AXL (Homo sapiens (Human), UniProt P30530). The experiment in a line: AXL autophosphorylation ELISA in A-172 cells. The class given is cell-based. The settings on record: cellular, Gas6-stimulated, phospho-AXL ELISA. The essentials: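 A-172 glioblastoma cells, serum-starved 24 h, took compounds for 1 h (8-point curve, 0.3% DMSO) before 15 min stimulation with 1 μg/mL recombinant human Gas6. Lysate phospho-AXL measured by ELISA against a phospho-AXL standard, normalized to DMSO (100%) and reference inhibitor (0%); IC50 from 4-parameter logistic fit.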
Chain of AXL (P30530 26-894): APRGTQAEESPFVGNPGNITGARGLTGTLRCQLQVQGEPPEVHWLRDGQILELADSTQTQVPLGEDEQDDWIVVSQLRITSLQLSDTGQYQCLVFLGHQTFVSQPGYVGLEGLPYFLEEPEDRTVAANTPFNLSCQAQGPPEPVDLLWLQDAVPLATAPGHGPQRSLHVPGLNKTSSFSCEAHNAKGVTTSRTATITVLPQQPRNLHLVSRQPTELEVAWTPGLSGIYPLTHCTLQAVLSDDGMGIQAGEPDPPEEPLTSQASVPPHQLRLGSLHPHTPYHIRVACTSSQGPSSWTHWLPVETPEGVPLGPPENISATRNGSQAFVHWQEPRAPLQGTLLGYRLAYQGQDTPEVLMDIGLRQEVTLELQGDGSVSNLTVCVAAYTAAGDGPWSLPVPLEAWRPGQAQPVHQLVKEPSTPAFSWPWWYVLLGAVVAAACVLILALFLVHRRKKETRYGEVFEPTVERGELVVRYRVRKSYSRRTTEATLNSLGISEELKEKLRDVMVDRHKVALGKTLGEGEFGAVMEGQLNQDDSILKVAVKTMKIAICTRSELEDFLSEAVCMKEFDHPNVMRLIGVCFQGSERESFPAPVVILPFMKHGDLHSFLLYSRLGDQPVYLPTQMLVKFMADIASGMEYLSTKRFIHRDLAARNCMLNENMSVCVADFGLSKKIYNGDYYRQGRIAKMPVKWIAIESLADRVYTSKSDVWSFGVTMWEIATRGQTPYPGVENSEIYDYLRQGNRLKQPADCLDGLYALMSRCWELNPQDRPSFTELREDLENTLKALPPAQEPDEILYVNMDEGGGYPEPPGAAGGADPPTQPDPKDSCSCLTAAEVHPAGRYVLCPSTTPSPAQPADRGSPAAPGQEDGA
On the technique in general: In an ELISA, binding on a coated surface is turned into a signal by an enzyme label.

Assay [5] deals with KDR (Homo sapiens (Human), UniProt P35968). The experiment in a line: KDR autophosphorylation ELISA in HUVEC cells. The class given is cell-based. The note with it: cellular, VEGF165-stimulated, phospho-KDR ELISA. The gist of the method:
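HUVECs grown 24 h at 37 °C, then serum-starved 24 h, were preincubated 1 h with an 8-point compound series (0.3% DMSO) and stimulated with 100 ng/mL human VEGF165 for 5 min. Phospho-KDR in lysates was measured by sandwich ELISA against a phospho-KDR standard; IC50 from 4-parameter logistic fit.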

Chain of KDR (P35968 20-1356): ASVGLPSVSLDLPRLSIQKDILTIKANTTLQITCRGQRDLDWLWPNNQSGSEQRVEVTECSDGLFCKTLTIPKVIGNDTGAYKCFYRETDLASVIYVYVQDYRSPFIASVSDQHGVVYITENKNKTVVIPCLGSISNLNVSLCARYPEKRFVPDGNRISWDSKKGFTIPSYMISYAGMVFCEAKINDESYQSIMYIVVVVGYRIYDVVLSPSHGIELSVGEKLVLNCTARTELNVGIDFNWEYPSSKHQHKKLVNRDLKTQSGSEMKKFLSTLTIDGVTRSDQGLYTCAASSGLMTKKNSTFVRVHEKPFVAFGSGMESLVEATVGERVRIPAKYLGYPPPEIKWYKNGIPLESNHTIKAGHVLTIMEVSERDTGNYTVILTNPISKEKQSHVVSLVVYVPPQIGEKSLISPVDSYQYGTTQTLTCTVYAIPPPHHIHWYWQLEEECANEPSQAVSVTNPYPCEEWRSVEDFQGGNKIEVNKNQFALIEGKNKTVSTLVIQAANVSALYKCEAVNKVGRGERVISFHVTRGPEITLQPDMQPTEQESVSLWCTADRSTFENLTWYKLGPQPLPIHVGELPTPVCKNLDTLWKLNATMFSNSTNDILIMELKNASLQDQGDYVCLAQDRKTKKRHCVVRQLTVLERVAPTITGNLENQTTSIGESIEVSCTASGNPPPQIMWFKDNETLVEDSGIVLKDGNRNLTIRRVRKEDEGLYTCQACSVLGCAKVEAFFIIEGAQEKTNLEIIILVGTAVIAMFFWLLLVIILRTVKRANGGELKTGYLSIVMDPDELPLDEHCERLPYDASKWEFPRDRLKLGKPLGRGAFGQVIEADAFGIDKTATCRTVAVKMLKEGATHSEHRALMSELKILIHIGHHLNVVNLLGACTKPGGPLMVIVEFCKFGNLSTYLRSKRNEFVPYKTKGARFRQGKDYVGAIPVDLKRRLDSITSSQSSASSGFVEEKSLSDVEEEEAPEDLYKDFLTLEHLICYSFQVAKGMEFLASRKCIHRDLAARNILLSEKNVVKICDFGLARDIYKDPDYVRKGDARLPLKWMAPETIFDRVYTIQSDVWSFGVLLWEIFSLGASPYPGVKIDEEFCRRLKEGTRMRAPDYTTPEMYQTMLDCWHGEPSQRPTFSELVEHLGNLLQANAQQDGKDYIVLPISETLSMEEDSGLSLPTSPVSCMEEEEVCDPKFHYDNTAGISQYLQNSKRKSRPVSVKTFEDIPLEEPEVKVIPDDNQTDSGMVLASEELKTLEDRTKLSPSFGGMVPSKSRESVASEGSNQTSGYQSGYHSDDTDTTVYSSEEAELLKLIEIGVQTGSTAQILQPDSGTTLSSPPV

Take `COc1cc2nccc(Oc3ccc(NC(=O)C4(C(=O)Nc5ccc(F)cc5)CC4)cn3)c2cc1C(=O)O` [Compound 13, 4-[5-[[1-[(4-Fluorophenyl)carbamoyl]cyclopropanecarbonyl]-amino]pyridin-2-yl]oxy-7-methoxyquinoline-6-carboxylic acid]: the half-maximal inhibitory concentration (IC50) in assay [1], in assay [2] and in assay [3] was 100 to 1000 nM in each case.
For `COc1cc2nccc(Oc3ncc(NC(=O)C4(C(=O)Nc5ccc(F)cc5)CC4)cc3Cl)c2cc1C(=O)O` [Compound 14, 4-[3-Chloro-5-[[1-[(4-fluorophenyl)carbamoyl]cyclopropanecarbonyl]amino]pyridin-2-yl]oxy-7-methoxyquinoline-6-carboxylic acid], the IC50 is 100 to 1000 nM in assay [1]; 100 to 1000 nM in assay [2]; 10 to 100 nM in assay [3]; over 300 nM in assay [4]; over 300 nM in assay [5].
